Measured values reported in publication PMC12442245, “Activity Analysis of the P2X Receptor Antagonist PPADS against Signal Transducer and Activator of Transcription Proteins” (Chembiochem, 2025).

Experiments:
[1] = target: STAT3 (Homo sapiens, UniProt P40763); assay: Competitive fluorescence polarization (FP) assay, STAT3; format: binding; settings: no reducing agent, 1 h
Excerpt: Screening of chemical libraries
Screening of chemical libraries comprising approximately 5000 known bioactive compounds in fluorescence polarization-based assays against phosphorylation-dependent protein-protein interaction domains, including STAT proteins, has been described.[1] PPADS was purchased from Sigma-Aldrich, and iso-PPADS from Bio-Techne.
(§1) Fluorescence polarization assays
(§2) Competitive fluorescence polarization (FP) assays for STAT1,[2] STAT3,[3] STAT4,[4] STAT5a,[5] STAT5b[6] and STAT6[1] were performed as previously described. Briefly, peptide binding to proteins was analyzed using the following carboxyfluorescein (CF) -labelled pepti des at a concentration of 10 nM: STAT1: 5-CF-GpYDKPHVL-OH, STAT3: 5-CF-GpYLPQTV -NH2, STAT4: 5-CF-GpYLPQNID-OH, STAT5a and STAT5b: 5-CF-GpYLVLDKW-OH, STAT6: 5- […]
CFGp[…]-OH. Proteins were used at a final concentration representing the approximate Kd value for binding of the corresponding peptide to the protein, namely 65 nM for STAT1, 65 nM for STAT3, 35 nM for STAT4, 125 nM for STAT5a, 65 nM for STAT5b and 75 nM for STAT6. […] FP was measured using an Infinite F500 plate reader (Tecan) and measurements were converted into percent inhibition according to the binding curve equation. Curves were plotted and best fits calculated using OriginPro […]

[2] = target: T1, STAT6 (Homo sapiens, UniProt P42226); assay: Competitive fluorescence polarization (FP) assay, STAT6; format: binding; settings: no reducing agent, 1 h
T1 sequence (P42226 1-847): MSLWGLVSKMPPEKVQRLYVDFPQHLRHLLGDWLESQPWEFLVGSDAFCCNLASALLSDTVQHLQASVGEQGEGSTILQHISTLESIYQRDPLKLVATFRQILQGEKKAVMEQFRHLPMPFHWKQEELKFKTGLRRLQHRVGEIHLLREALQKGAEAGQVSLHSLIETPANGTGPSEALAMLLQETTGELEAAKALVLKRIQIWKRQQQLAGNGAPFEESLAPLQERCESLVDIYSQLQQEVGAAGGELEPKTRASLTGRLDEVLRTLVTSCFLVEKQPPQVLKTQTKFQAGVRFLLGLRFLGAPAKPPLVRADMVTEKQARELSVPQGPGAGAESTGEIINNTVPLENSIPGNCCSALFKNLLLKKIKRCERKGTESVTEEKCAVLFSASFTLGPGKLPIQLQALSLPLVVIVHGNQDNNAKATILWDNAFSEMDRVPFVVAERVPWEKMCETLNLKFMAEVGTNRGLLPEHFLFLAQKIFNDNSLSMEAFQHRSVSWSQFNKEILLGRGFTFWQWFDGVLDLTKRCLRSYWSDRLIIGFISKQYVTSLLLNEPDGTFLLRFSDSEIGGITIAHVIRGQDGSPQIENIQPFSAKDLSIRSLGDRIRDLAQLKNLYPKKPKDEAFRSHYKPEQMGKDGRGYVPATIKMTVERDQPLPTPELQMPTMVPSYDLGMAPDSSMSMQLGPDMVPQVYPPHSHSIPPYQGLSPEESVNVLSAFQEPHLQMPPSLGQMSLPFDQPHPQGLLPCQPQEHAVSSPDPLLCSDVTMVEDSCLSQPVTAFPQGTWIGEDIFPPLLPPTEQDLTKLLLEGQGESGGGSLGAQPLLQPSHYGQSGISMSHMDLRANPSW
Protocol: Screening of chemical libraries […]
PPADS was purchased […]
from Sigma-Aldrich, and iso-PPADS from Bio-Techne.
as §1, §2
CFGp[…]-OH. Proteins were used at a final concentration representing the approximate Kd value for binding of the corresponding peptide to the protein, namely 65 nM for STAT1, 65 nM for STAT3, 35 nM for STAT4, 125 nM for STAT5a, 65 nM for STAT5b and 75 nM for STAT6. Assays were carried out in buffer containing 10 mM Tris/HCl, 50 mM NaCl, 1 mM EDTA, 0.1% NP-40 substitute and 2% DMSO, with 1 mM reducing agent where applicable, at pH 8.0. Proteins were incubated with compound for 1 h at room temperature before adding peptide and incubating for a further 1 h. FP was measured using an Infinite F500 plate reader (Tecan) and measurements were converted into percent inhibition according to […]

STAT3, sequence (P40763 whole entry, species assumed): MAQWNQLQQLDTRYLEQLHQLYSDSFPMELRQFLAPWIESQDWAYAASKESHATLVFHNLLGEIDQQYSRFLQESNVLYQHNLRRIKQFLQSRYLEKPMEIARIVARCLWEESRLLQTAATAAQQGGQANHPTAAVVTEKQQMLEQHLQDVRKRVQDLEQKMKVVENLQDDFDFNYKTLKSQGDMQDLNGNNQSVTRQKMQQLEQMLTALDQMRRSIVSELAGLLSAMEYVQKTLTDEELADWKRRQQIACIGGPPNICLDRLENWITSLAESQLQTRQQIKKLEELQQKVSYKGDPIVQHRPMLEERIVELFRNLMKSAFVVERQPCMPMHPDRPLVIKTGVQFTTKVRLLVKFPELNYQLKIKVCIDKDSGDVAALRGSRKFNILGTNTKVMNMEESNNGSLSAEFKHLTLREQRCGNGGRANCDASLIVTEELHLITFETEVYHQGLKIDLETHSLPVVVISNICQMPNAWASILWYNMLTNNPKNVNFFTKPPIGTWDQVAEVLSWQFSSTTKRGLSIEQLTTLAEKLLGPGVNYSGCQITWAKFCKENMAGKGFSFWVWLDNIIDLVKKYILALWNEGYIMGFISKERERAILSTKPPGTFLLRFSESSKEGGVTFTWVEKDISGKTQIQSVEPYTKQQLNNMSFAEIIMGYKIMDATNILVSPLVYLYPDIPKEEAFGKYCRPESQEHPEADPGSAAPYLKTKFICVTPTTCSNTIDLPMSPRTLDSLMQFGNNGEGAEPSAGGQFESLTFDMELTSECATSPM

Compound	IC50 [1] [µM]	IC50 [2] [µM]
Cc1nc(/N=N/c2ccc(S(=O)(=O)O)cc2S(=O)(=O)O)c(COP(=O)(O)O)c(C=O)c1O [PPADS, pyridoxalphosphate‐6‐azophenyl‐2',4'‐disulfonic acid]	22.6 ± 1.6	20.1 ± 4.6
Cc1nc(/N=N/c2cc(S(=O)(=O)O)ccc2S(=O)(=O)O)c(COP(=O)(O)O)c(C=O)c1O [iso‐PPADS]	54 ± 14	66 ± 12
